Legend:
[1] = molecular target: human liver Arginase (Homo sapiens, UniProt P05089); details: published value in literature; substrate arginine; cited from earlier work
[2] = molecular target: T1, pegylated Arginase (recombinant human Arginase I, SEQ ID NO: 3, modified with mPEG-SPA, MW 5,000) (Homo sapiens, UniProt P05089); assay: Arginase activity, kinetic properties (method of Ikemoto et al. 1990); assay type: biochemical; details: substrate arginine
T1 sequence (P05089 1-322): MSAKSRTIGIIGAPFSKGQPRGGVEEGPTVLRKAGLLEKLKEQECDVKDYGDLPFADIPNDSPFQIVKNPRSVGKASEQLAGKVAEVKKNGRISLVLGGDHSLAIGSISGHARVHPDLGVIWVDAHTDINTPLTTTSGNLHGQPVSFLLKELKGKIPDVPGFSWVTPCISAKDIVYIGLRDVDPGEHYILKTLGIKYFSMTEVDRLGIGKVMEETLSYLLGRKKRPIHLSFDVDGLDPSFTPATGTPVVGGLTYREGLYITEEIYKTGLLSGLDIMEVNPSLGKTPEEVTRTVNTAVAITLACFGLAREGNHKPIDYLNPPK
Procedure: Moreover, about 1 mM of Mn^2+ ions and a temperature of 30-50 degree C are required to achieve maximum activity for the native Arginase.

[3] = molecular target: T2, recombinant human Arginase I, native (non-pegylated), 6xHis-tagged, B. subtilis-expressed, SEQ ID NO: 3 (Homo sapiens, UniProt P05089); assay: as above; assay type: biochemical; details: substrate arginine
T2 sequence (P05089 1-322): T1 sequence (P05089 1-322)

## N=C(N)NCCC[C@H](N)C(=O)O [arginine]
[1]
  Km: 2600 µM
[2]
  Km: 2900 ± 300 µM
  Vmax: 360 µmol urea min^-1 mM^-1
[3]
  Km: 1900 ± 700 µM
  Vmax: 518 µmol urea min^-1. mM^-1
  kcat: 2.0 ± 0.5 s⁻¹
